Tests used:
[1] = test system: normal NK cells expanded with K562-aAPC; experiment: drug sensitivity score (DSS) (DSS units); higher = more sensitive; extreme values may be limits of the assay; conditions: 72 h; IL-2 2.5 ng/mL
Description: (§1)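 Drug sensitivity and resistance testing on K562-aAPC-expanded normal NK cells: 5 concentrations (10-fold steps over a 10,000-fold range), 72 h at 37 °C, viability by CellTiter-Glo normalised to DMSO and benzethonium chloride controls; DSS from the fitted curve.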

[2] = test system: normal NK cells expanded with K562-aAPC; experiment: percent inhibition of viability; higher = more inhibition; conditions: 72 h, IL-2 2.5 ng/mL
Description: as §1

NK-92 (IL-2 2.5 ng/mL) [3] = experiment: as above; conditions: 72 h
[4] = test system: normal primary NK cells, pool 1 (3 donors), resting (IL-2 0 ng/mL); experiment: as above; conditions: 72 h
IMC-1 (IL-2 20 ng/mL) [5] = experiment: as above; conditions: 72 h
KAI3 (IL-2 2.5 ng/mL) [6] = experiment: as above; conditions: 72 h
NK-YS (IL-2 2.5 ng/mL) [7] = experiment: as above; conditions: 72 h
YT (IL-2 2.5 ng/mL) [8] = experiment: as above; conditions: 72 h
[9] = test system: normal primary NK cells, pool 2 (3 donors) (IL-2 2.5 ng/mL); experiment: as above; conditions: 72 h
DERL-7 (IL-2 2.5 ng/mL) [10] = experiment: as above; conditions: 72 h
SNK-6 (IL-2 2.5 ng/mL) [11] = experiment: as above; conditions: 72 h
[12] = test system: normal primary NK cells, pool 1 (3 donors) (IL-2 2.5 ng/mL); experiment: as above; conditions: 72 h
[13] = test system: normal primary NK cells, pool 3 (3 donors) (IL-2 2.5 ng/mL); experiment: as above; conditions: 72 h
KHYG-1 (IL-2 2.5 ng/mL) [14] = experiment: as above; conditions: 72 h
NKL (IL-2 2.5 ng/mL) [15] = experiment: as above; conditions: 72 h
NK-92 (IL-2 2.5 ng/mL) [16] = experiment: drug sensitivity score (DSS) (DSS units); higher = more sensitive; extreme values may be limits of the assay; conditions: 72 h
[17] = test system: normal primary NK cells, pool 1 (3 donors), resting (IL-2 0 ng/mL); experiment: as above; conditions: 72 h
IMC-1 (IL-2 20 ng/mL) [18] = experiment: as above; conditions: 72 h
KAI3 (IL-2 2.5 ng/mL) [19] = experiment: as above; conditions: 72 h
NK-YS (IL-2 2.5 ng/mL) [20] = experiment: as above; conditions: 72 h
YT (IL-2 2.5 ng/mL) [21] = experiment: as above; conditions: 72 h
[22] = test system: normal primary NK cells, pool 2 (3 donors) (IL-2 2.5 ng/mL); experiment: as above; conditions: 72 h
DERL-7 (IL-2 2.5 ng/mL) [23] = experiment: as above; conditions: 72 h
SNK-6 (IL-2 2.5 ng/mL) [24] = experiment: as above; conditions: 72 h
[25] = test system: normal primary NK cells, pool 1 (3 donors) (IL-2 2.5 ng/mL); experiment: as above; conditions: 72 h
[26] = test system: normal primary NK cells, pool 3 (3 donors) (IL-2 2.5 ng/mL); experiment: as above; conditions: 72 h
KHYG-1 (IL-2 2.5 ng/mL) [27] = experiment: as above; conditions: 72 h
NKL (IL-2 2.5 ng/mL) [28] = experiment: as above; conditions: 72 h

COc1cc2nccc(Oc3ccc(NC(=O)NC4CC4)c(Cl)c3)c2cc1C(N)=O [Lenvatinib] (max concentration tested 2500 nM)
Conditions | drug sensitivity score
DERL-7 (IL-2 2.5 ng/mL) [23] | 0
IMC-1 (IL-2 20 ng/mL) [18] | 0
KAI3 (IL-2 2.5 ng/mL) [19] | 3.76
KHYG-1 (IL-2 2.5 ng/mL) [27] | 0.34
NK-92 (IL-2 2.5 ng/mL) [16] | 4.08
NK-YS (IL-2 2.5 ng/mL) [20] | 1.95
NKL (IL-2 2.5 ng/mL) [28] | 4.35
SNK-6 (IL-2 2.5 ng/mL) [24] | 0.89
YT (IL-2 2.5 ng/mL) [21] | 0.88
[1] | 1.26
[17] | 0
[22] | 0.89
[25] | 0.01
[26] | 0

percent inhibition of viability [%]
Conditions | 0.25 nM | 2.5 nM | 25 nM | 250 nM | 2500 nM
DERL-7 (IL-2 2.5 ng/mL) [10] | -0.62 | 1.25 | 2.95 | -3.62 | 5.92
IMC-1 (IL-2 20 ng/mL) [5] | -6.27 | -2.01 | -2.37 | 0.43 | 3.18
KAI3 (IL-2 2.5 ng/mL) [6] | -5.44 | 0.76 | 3.58 | 15.2 | 41.1
KHYG-1 (IL-2 2.5 ng/mL) [14] | -6.43 | -1.14 | -3.61 | 2.55 | 13.7
NK-92 (IL-2 2.5 ng/mL) [3] | -9.84 | 0.14 | -0.46 | 17.2 | 37.8
NK-YS (IL-2 2.5 ng/mL) [7] | -8.22 | -3.14 | -1.94 | 6.7 | 25.7
NKL (IL-2 2.5 ng/mL) [15] | -6.25 | -5.72 | 2.51 | 23.8 | 33.6
SNK-6 (IL-2 2.5 ng/mL) [11] | -33.9 | -23.3 | -21.9 | -19.5 | -12.3
YT (IL-2 2.5 ng/mL) [8] | -8.36 | -6.83 | -3.92 | 0.74 | 22.8
[2] | -4.04 | -5.14 | -2.63 | 6.46 | 19.2
[4] | -5.39 | 10.9 | 5.68 | 1.5 | 8.67
[9] | -4.17 | -2.51 | -1.07 | -9.36 | -5.82
[12] | -3.95 | 5.45 | 5.1 | 3.42 | 13.3
[13] | -0.41 | -2.47 | 2.78 | -8.95 | -1.48

Source: the supplement of paper PMC5908809
